Laboratory results as given in patent publication US12558386B2, “Methods and compositions to modulate antibiotic resistance and gastrointestinal microbiota” (OHIO STATE INNOVATION FOUNDATION, priority 2018, dated 2026).
In brackets after ≈: the same amount, converted by molar mass. Like-named read-outs stand apart in the source and are kept apart here.

Tests used:
[1] = tested on: E. coli CA-1; assay: MIC assessment (TREK Sensititre); type: cell-based, Escherichia coli
Source text: (§1) Bacterial strains. Multiple Amp^r strains from feces of broiler chickens without antibiotic treatment were recovered on Columbia blood Agar base (Becton, […] Dickinson and Company, Franklin Lakes, NJ) supplemented with 5% defibrinated sheep blood (Thermo Scientific™, Grand Island, NY).
(§2) Minimum inhibition concertation (MIC) assessment. A TREK Sensititre diagnostic system (Thermo scientific, Oakwood Village, OH, USA) was used to assess the AR phenotype and MIC of isolated strains. Protocols to use this system can be found on www.trekds.com. Cation-adjusted Mueller Hinton Broth (Becton, Dickinson and Company, MD, USA) was used as basic medium.

[2] = tested on: E. coli CA-20; assay: MIC assessment (TREK Sensititre); type: cell-based, Escherichia coli
Experimental: as §1, with “NY). The strains were maintained in Columbia broth (Becton Dickinson and Company, Franklin Lakes, NJ), and propagated by aerobic growth at 37° C., and further subjected to strain identification and Minimum Inhibition Concentration (MIC) assessments.” for “NY).”
as §2

[3] = tested on: E. coli CA-4; assay: MIC assessment (TREK Sensititre); type: cell-based, Escherichia coli
Experimental: as §1, with “NY). The strains were maintained in Columbia broth (Becton Dickinson and Company, Franklin Lakes, NJ), and propagated by aerobic growth at 37° C., and further subjected to strain identification and Minimum Inhibition Concentration (MIC) assessments.” for “NY).”
as §2

[4] = tested on: Lactobacillus crispatus CG-12; assay: MIC assessment (TREK Sensititre); type: cell-based
Experimental: (§3) Multiple commensal bacterial strains from chicken feces were recovered from Columbia blood Agar base (Becton, […] Dickinson and Company, Franklin Lakes, NJ) supplemented with 5% defibrinated sheep blood (Thermo Scientific™, Grand Island, NY), and maintained in Columbia broth (Becton Dickinson and Company, Franklin Lakes, NJ) and propagated by anaerobic growth at 37° C. The strains were subjected to antibiotic susceptibility assessment followed by strain identification.
as §2

[5] = tested on: Three Amp^r E. coli; assay: MIC assessment, summary for the three strains; type: cell-based, Escherichia coli; settings: E. coli CA-1, CA-4 and CA-20 together
Experimental: as §1, with “NY). The strains were maintained in Columbia broth (Becton Dickinson and Company, Franklin Lakes, NJ), and propagated by aerobic growth at 37° C., and further subjected to strain identification and Minimum Inhibition Concentration (MIC) assessments.” for “NY).”
as §2

[6] = tested on: CG-12; assay: Screening of antibiotic susceptible commensal strains on antibiotic agar plates; type: cell-based, Lactobacillus crispatus; settings: 16 μg/mL tetracycline, 100 μg/mL erythromycin, 32 μg/mL ampicillin, 152 μg/mL sulfamethoxazole with 8 μg/mL trimethoprim
Experimental: as §3
Screening of antibiotic susceptible commensal strains. Recovered commensal strain isolates (over 1000 colonies) were spotted on Columbia broth (Becton, […] Dickinson and Company, Franklin Lakes, NJ) agar plates containing each of the four antibiotics for rapid assessment of phenotypic resistance profiles. Screened antibiotics included 16 μg/mL tetracycline (Sigma-Aldrich, St. Louis, MO, USA), 100 μg/mL erythromycin (Fisher Scientific, Waltham, MA, USA), 32 μg/mL ampicillin (Sigma-Aldrich), and 152 μg/mL sulfamethoxazole (Sigma-Aldrich) with 8 μg/mL trimethoprim (Sigma-Aldrich).

[7] = tested on: poultry fecal/gut microbiota (Proteobacteria, ESBL E. coli); assay: Chicken study, metagenomics assessment #1 of pooled feces (FIG. 5); type: in vivo, chickens; settings: Tween 80 treatment (Lanes 6, 8)
Source text: FIGS. 5A and 5B show the impact of probiotic treatment on bacterial population in pooled feces of chickens. FIG. 5A) Phylum level; FIG. 5B) Class level. The treatments include Lane 1 (no, cocktail, no): no ESBL E. coli inoculation for 4 days, then inoculated with probiotic cocktail but no Tween 80; Lane 2 (no; no, no): no E. coli, no probiotics, no Tween 80; Lane 3: (probiotics, E. coli, no): probiotic cocktail for 4 days, followed by E. coli, but no Tween 80); Lane 4 (Yes, CG12, no): E. coli for 4 days, followed by Lb. crispatus (WZ12) for 4 days but no Tween 80; Lane 5 (yes, cocktail, no): E. coli for 4 days, followed by probiotic cocktail for 4 days, no Tween; Lane 6 ((yes, cocktail, yes): E. coli for 4 days, followed by probiotic cocktail for 4 days, with Tween 80; Lane 7 (Yes, no, no): E. coli for 4 days, saline for 4 days (no probiotics no Tween); Lane 8 (yes, no, yes): ESBL E. coli for 4 days, no probiotics but with Tween 80 for 4 days.
Animal Studies. The probiotics as disclosed herein were applied to chickens raised in a poultry facility, with the aim to examine the effectiveness of the treatment phenotypically and genetically (fecal microbiota) and physiologically (chickens); and to adjust receipt and procedure of feeding if necessary.
Treatments effective in modulating gut microbiota. […]

[8] = Escherichia coli, CA1, E. coli CA-1, read-out: MIC
[9] = Escherichia coli, CA20, E. coli CA-20, read-out: MIC
[10] = Escherichia coli, CA4, E. coli CA-4, read-out: MIC
[11] = Lactobacillus crispatus, CG12, L. crispatus CG-12, read-out: MIC

Row | Compound | MIC [1, 8] [µg/mL] | MIC [2, 9] [µg/mL] | MIC [3, 10] [µg/mL] | MIC [4, 11] [µg/mL] | resistance phenotype from MIC, in words [5] | other results
1 | CO/N=C(\C(=O)N[C@@H]1C(=O)N2C(C(=O)O)=C(CSc3nc(=O)c(=O)[nH]n3C)CS[C@H]12)c1csc(N)n1 [AXO, ceftriaxone] | < 8 | 16 (≈ 28.9 µM) | < 8 | < 8 |  | resistance phenotype from MIC, in words ([2]; only E. coli CA-20): some resistant
2 | O=C(O)c1cn(C2CC2)c2cc(N3CCNCC3)c(F)cc2c1=O [CIP, ciprofloxacin] |  |  |  | > 2 |  | resistance phenotype from MIC, in words ([4]; L. crispatus CG-12): resistant
3 | CCC[C@@H]1C[C@@H](C(=O)N[C@@H]([C@H]2O[C@H](SC)[C@H](O)[C@@H](O)[C@H]2O)[C@H](C)Cl)N(C)C1 [CLI, clindamycin] | > 2 | > 2 | > 2 | < 0.12 |  | 
4 | CCCCCCCCCC(=O)N[C@@H](Cc1c[nH]c2ccccc12)C(=O)N[C@H](CC(N)=O)C(=O)N[C@@H](CC(=O)O)C(=O)N[C@@H]1C(=O)NCC(=O)N[C@@H](CCCN)C(=O)N[C@@H](CC(=O)O)C(=O)N[C@H](C)C(=O)N[C@@H](CC(=O)O)C(=O)NCC(=O)N[C@H](CO)C(=O)N[C@@H]([C@H](C)CC(=O)O)C(=O)N[C@@H](CC(=O)c2ccccc2N)C(=O)O[C@@H]1C [DAP, daptomycin] | > 8 | > 8 | > 8 | 4 (≈ 2.47 µM) | resistant | resistance phenotype from MIC, in words ([4]; L. crispatus CG-12): resistant
5 | CC[C@H]1OC(=O)[C@H](C)[C@@H](O[C@H]2C[C@@](C)(OC)[C@@H](O)[C@H](C)O2)[C@H](C)[C@@H](O[C@@H]2O[C@H](C)C[C@H](N(C)C)[C@H]2O)[C@](C)(O)C[C@@H](C)C(=O)[C@H](C)[C@@H](O)[C@]1(C)O [ERY, erythromycin] | > 4 | > 4 | > 4 | < 0.25 | resistant | phenotypic susceptibility on antibiotic agar plates [6]: susceptible
6 | COc1c(N2CCNC(C)C2)c(F)cc2c(=O)c(C(=O)O)cn(C3CC3)c12 (stereo not drawn) [GAT, gatifloxacin] | < 1 | < 1 | < 1 | 4 (≈ 10.7 µM) |  | resistance phenotype from MIC, in words ([4]; L. crispatus CG-12): resistant
7 | C[C@H]1COc2c(N3CCN(C)CC3)c(F)cc3c(=O)c(C(=O)O)cn1c23 [LEVO, levofloxacin] | < 0.25 | < 0.25 | < 0.25 | > 8 |  | 
8 | CC(=O)NC[C@H]1CN(c2ccc(N3CCOCC3)c(F)c2)C(=O)O1 [LZD, linezolid] | > 8 | > 8 | > 8 | 2 (≈ 5.93 µM) | resistant | 
9 | CO[C@H]1/C=C/O[C@@]2(C)Oc3c(C)c(O)c4c(O)c(c(/C=N/N5CCN(C)CC5)c(O)c4c3C2=O)NC(=O)/C(C)=C\C=C\[C@H](C)[C@H](O)[C@@H](C)[C@@H](O)[C@@H](C)[C@H](OC(C)=O)[C@@H]1C [RIF, rifampin] | 4 (≈ 4.86 µM) | 4 (≈ 4.86 µM) | > 4 | 1 (≈ 1.22 µM) |  | 
10 | [H]/N=C(/N)N[C@H]1[C@H](O)[C@@H](O)[C@H](O[C@@H]2O[C@@H](C)[C@](O)(C=O)[C@H]2O[C@@H]2O[C@@H](CO)[C@H](O)[C@@H](O)[C@@H]2NC)[C@@H](N/C(N)=N\[H])[C@@H]1O [STR, streptomycin] | < 1000 | < 1000 | < 1000 | < 1000 |  | 
11 | CN(C)[C@@H]1C(O)=C(C(N)=O)C(=O)[C@@]2(O)C(O)=C3C(=O)c4c(O)cccc4[C@@](C)(O)[C@H]3C[C@@H]12 [TET, tetracycline] | < 2 | < 2 | < 2 | < 2 |  | 
12 | CCCCCCCC/C=C\CCCCCCCC(=O)OCCOCC(OCCO)C1OCC(OCCO)C1OCCO (stereo not drawn) [Tween 80] |  |  |  |  |  | effect on fecal microbiota [7]: assisted the colonization of Proteobacteria but not the Firmicutes
13 | CN[C@H](CC(C)C)C(=O)N[C@H]1C(=O)N[C@@H](CC(N)=O)C(=O)N[C@H]2C(=O)N[C@H]3C(=O)N[C@H](C(=O)N[C@H](C(=O)O)c4cc(O)cc(O)c4-c4cc3ccc4O)[C@H](O)c3ccc(c(Cl)c3)Oc3cc2cc(c3O[C@@H]2O[C@H](CO)[C@@H](O)[C@H](O)[C@H]2O[C@H]2C[C@](C)(N)[C@H](O)[C@H](C)O2)Oc2ccc(cc2Cl)[C@H]1O [VAN, vancomycin] |  |  |  |  | resistant | MIC ([1]; Escherichia coli, CA1): > 128 µg/mL; MIC ([2]; Escherichia coli, CA20): > 128 µg/mL; MIC ([3]; Escherichia coli, CA4): > 128 µg/mL; MIC ([4]; Lactobacillus crispatus, CG12): < 1 µg/mL
14 | gentamicin |  |  |  |  |  | MIC ([1]; E. coli CA-1): 4 µg/mL; MIC ([2]; E. coli CA-20): 8 µg/mL; MIC ([3]; E. coli CA-4): 4 µg/mL; MIC ([4]; L. crispatus CG-12): 16 µg/mL
15 | oxacillin + 2% NaC [OXA+] |  |  |  |  | high resistance | MIC ([1]; E. coli CA-1): >8 µg/mL; MIC ([2]; E. coli CA-20): 8 µg/mL; MIC ([3]; E. coli CA-4): >8 µg/mL; MIC ([4]; L. crispatus CG-12): <0.25 µg/mL
16 | penicillin |  |  |  |  | high resistance | MIC ([1]; E. coli CA-1): >8 µg/mL; MIC ([2]; E. coli CA-20): >8 µg/mL; MIC ([3]; E. coli CA-4): >8 µg/mL; MIC ([4]; L. crispatus CG-12): 0.5 µg/mL
17 | quinupristin/dalfopristin [SYN] |  |  |  |  |  | MIC ([1]; E. coli CA-1): >4 µg/mL; MIC ([2]; E. coli CA-20): >4 µg/mL; MIC ([3]; E. coli CA-4): >4 µg/mL; MIC ([4]; L. crispatus CG-12): 0.25 µg/mL
18 | sulfamethoxazole/trimethoprim [SXT] |  |  |  |  |  | MIC ([4]; L. crispatus CG-12): 2/38; phenotypic susceptibility on antibiotic agar plates [6]: susceptible
